Substitutions are numbered along the chain they refer to.
Legend:
RhPeropsin [1] = biological target: T1, RhPeropsin (Rimicaris hybisae, UniProt Z9VFR8UU34); test: absorption spectroscopy and HPLC of retinal in purified pigment; format: biochemical; conditions: covalent (Schiff base, Lys296); dark state; photoisomerized under yellow light (>500 nm); 0 °C
T1 construct: C-terminal Rho1D4 tag (ETSQVAPA), human-codon optimized, expressed in HEK293T, no truncation stated; transcriptome reads SRA SRP339896
T1 sequence (Z9VFR8UU34 1-341): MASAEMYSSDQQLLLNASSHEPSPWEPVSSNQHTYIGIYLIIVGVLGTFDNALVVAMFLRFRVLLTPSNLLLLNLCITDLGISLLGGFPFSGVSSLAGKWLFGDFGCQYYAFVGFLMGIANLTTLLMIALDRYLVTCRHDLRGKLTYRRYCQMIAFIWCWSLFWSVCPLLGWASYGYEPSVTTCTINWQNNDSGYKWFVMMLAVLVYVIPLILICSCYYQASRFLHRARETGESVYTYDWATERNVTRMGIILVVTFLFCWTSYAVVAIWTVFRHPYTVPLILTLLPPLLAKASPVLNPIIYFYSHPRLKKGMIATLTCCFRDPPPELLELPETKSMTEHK

RhOpn5 [2] = biological target: T2, RhOpn5 (Rimicaris hybisae, UniProt Z9SF72QZI5); test: as above; format: biochemical; conditions: covalent (Schiff base, Lys296); photoproduct under yellow light (>480 nm); 0 °C
T2 construct: 178 C-terminal residues truncated, C-terminal Rho1D4 tag (ETSQVAPA), human-codon optimized, HEK293T; transcriptome reads SRA SRP339896
T2 sequence (Z9SF72QZI5 1-407): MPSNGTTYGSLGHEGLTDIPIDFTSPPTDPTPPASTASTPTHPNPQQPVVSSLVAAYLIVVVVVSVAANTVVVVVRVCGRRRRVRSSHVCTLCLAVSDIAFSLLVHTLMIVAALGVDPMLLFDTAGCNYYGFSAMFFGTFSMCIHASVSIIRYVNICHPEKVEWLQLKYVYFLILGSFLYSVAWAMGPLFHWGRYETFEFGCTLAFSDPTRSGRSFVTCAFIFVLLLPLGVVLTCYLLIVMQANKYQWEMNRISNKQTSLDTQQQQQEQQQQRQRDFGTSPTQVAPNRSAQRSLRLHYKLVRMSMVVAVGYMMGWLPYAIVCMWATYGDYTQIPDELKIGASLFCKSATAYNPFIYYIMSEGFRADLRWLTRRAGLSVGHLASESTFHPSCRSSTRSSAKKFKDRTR

RhOpn5 [3] = biological target: T2, RhOpn5; test: as above; format: binding; conditions: covalent (Schiff base, Lys296); dark state; 0 °C
RhOpn5 [4] = biological target: T3, RhOpn5 (Rimicaris hybisae, UniProt Z9SF72QZI5, D98N, form not given); test: UV-visible absorption spectroscopy of purified pigment; format: binding; conditions: covalent (Schiff base, Lys296); pH 8.0 and 6.5; 0 °C; mutation in bovine rhodopsin numbering; counterion mutant
T3 construct: 178 C-terminal residues truncated, C-terminal Rho1D4 tag (ETSQVAPA), human-codon optimized, HEK293T; transcriptome reads SRA SRP339896
T3 sequence (Z9SF72QZI5 1-407 D98N): T2 sequence (Z9SF72QZI5 1-407) with D98N

RhPeropsin [5] = biological target: T1, RhPeropsin; test: HPLC of retinal isomers after irradiation; format: biochemical; conditions: covalent (Schiff base, Lys296); photoproduct under yellow light (>500 nm); 0 °C
RhOpn5 [6] = biological target: T4, RhOpn5 (Rimicaris hybisae, UniProt Z9SF72QZI5); test: UV-visible absorption spectroscopy of purified pigment; format: binding; conditions: covalent (Schiff base, Lys296); pH 8.0 and 6.5; 0 °C; mutation in bovine rhodopsin numbering
T4 construct: 178 C-terminal residues truncated, C-terminal Rho1D4 tag (ETSQVAPA), human-codon optimized, HEK293T; transcriptome reads SRA SRP339896
T4 sequence (Z9SF72QZI5 1-407 E336Q): T2 sequence (Z9SF72QZI5 1-407) with E336Q

RhOpn5 [7] = biological target: T5, RhOpn5 (Rimicaris hybisae, UniProt Z9SF72QZI5, E199Q, form not given); test: as above; format: binding; conditions: covalent (Schiff base, Lys296); pH 8.0 and 6.5; 0 °C; mutation in bovine rhodopsin numbering
T5 construct: 178 C-terminal residues truncated, C-terminal Rho1D4 tag (ETSQVAPA), human-codon optimized, HEK293T; transcriptome reads SRA SRP339896
T5 sequence (Z9SF72QZI5 1-407 E199Q): T2 sequence (Z9SF72QZI5 1-407) with E199Q

RhOpn5 [8] = biological target: T6, RhOpn5 (Rimicaris hybisae, UniProt Z9SF72QZI5, E196Q, form not given); test: as above; format: binding; conditions: covalent (Schiff base, Lys296); pH 8.0 and 6.5; 0 °C; mutation in bovine rhodopsin numbering
T6 construct: 178 C-terminal residues truncated, C-terminal Rho1D4 tag (ETSQVAPA), human-codon optimized, HEK293T; transcriptome reads SRA SRP339896
T6 sequence (Z9SF72QZI5 1-407 E196Q): T2 sequence (Z9SF72QZI5 1-407) with E196Q

| Structure (SMILES) | absorption spectroscopy and HPLC of retinal in purified pigment (RhPeropsin [1]) | absorption spectroscopy and HPLC of retinal in purified pigment (RhOpn5 [2]) | absorption spectroscopy and HPLC of retinal in purified pigment (RhOpn5 [3]) | UV-visible absorption spectroscopy of purified pigment (RhOpn5 [4]) | HPLC of retinal isomers after irradiation (RhPeropsin [5]) | UV-visible absorption spectroscopy of purified pigment (RhOpn5 [6]) | UV-visible absorption spectroscopy of purified pigment (RhOpn5 [7]) | UV-visible absorption spectroscopy of purified pigment (RhOpn5 [8]) |
| --- | --- | --- | --- | --- | --- | --- | --- | --- |
| CC1=C(/C=C/C(C)=C/C=C/C(C)=C/C=O)C(C)(C)CCC1 [all-trans-retinal] | RhPeropsin exclusively binds all-trans-retinal in the dark and produces 11-cis-retinal from all-trans-retinal | accompanied by the conversion from 11-cis- to all-trans-retinal | – | – | – | – | – | – |
| CC1=C(/C=C/C(C)=C/C=C\C(C)=C\C=O)C(C)(C)CCC1 [11-cis-retinal] | – | – | RhOpn5 forms a blue light–sensitive pigment binding 11-cis-retinal in the resting state | the D83N mutant showed a significant pH-dependent change, with a small peak in the visible | RhPeropsin converts all-trans-retinal to 11-cis-retinal upon visible light absorption | the E179Q, E182Q, and E286Q mutants did not show pH-dependent spectral changes | the E179Q, E182Q, and E286Q mutants did not show pH-dependent spectral changes | the E179Q, E182Q, and E286Q mutants did not show pH-dependent spectral changes |

— publication PMC12221356, “A repertoire of visible light–sensitive opsins in the deep-sea hydrothermal vent shrimp Rimicaris hybisae” (The Journal of Biological Chemistry, 2025)
